Values of other authors, collected in patent US11497742B1, “Pharmaceutical composition for the treatment of Covid-19 infection” (priority 2021, dated 2022).

What was measured:
COVID-19 Mpro = COVID-19 Mpro (Severe acute respiratory syndrome coronavirus 2, UniProt P0DTD1); settings: Hussein and Elkhair 2021
SARS-CoV-2 infection = settings: interim analysis, 775 patients, oral

Compound: Zn(HCQ)Cl2H2O
- inhibition of COVID-19 Mpro (molecular docking, low binding energies) (COVID-19 Mpro): potent inhibitors

Compound: Zn(CQ)Cl2H2O
- inhibition of COVID-19 Mpro (molecular docking, low binding energies) (COVID-19 Mpro): potent inhibitors

Compound: CC(C)C(=O)OC[C@H]1O[C@@H](n2ccc(NO)nc2=O)[C@H](O)[C@@H]1O [Molnupiravir]
- reduced the risk of hospitalization or death (SARS-CoV-2 infection): approximately 50%
